Values of other authors in patent US7432394B2, “Resolution of α-(phenoxy) phenylacetic acid derivatives with naphthyl-alkylamines” (Metabolex, Inc., priority 2005, dated 2008).

Molecular target: cytochrome P450 2C9 (Homo sapiens, UniProt P11712)
Sequence (P11712 whole entry): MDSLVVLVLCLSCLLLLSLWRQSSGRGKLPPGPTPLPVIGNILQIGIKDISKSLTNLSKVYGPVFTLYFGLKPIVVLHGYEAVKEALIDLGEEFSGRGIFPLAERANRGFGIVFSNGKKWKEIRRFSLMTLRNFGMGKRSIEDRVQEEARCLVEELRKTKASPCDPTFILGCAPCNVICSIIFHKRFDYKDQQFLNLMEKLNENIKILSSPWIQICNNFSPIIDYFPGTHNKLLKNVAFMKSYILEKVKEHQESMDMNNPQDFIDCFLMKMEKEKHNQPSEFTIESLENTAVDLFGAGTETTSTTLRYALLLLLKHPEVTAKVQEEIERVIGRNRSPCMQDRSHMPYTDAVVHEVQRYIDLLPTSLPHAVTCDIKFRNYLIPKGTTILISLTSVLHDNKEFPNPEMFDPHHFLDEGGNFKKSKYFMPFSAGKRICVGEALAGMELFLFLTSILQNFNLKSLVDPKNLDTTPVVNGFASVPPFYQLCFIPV

ability to inhibit cytochrome P450 2C9 compared to the (+)-enantiomer (fold less active than the (+)-enantiomer of halofenic acid) | inhibition of cytochrome P450 2C9 (racemic acid, result in words) | Structure (SMILES)
about twenty-fold less active | – | O=C(O)C(Oc1cccc(C(F)(F)F)c1)c1ccc(Cl)cc1 (single isomer, unassigned; (-)) [(−)-enantiomer of halofenic acid, (−)-4-chloro-α-(3-trifluoromethylphenoxy)phenylacetic acid]
– | inhibits cytochrome P450 2C9 | O=C(O)C(Oc1cccc(C(F)(F)F)c1)c1ccc(Cl)cc1 (racemic) [halofenic acid, (4-chlorophenyl)(3-trifluoromethylphenoxy)acetic acid]
